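Five concentrations, 48 hours, 96-well plates. GI50 = concentration required for 50% inhibition of growth. TGI denotes the concentration required for complete inhibition of growth.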
The molecules below were run on NCI-H522 lung (assay: growth of human tumour cells (NCI), 48 h).

| SMILES | TGI |
| --- | --- |
| CC(=O)NNc1nc(C)c(C(/C=C/c2cccc([N+](=O)[O-])c2)=N/NC(=S)NN)s1 | > 100 µM |
| CCCN(CCCCC(NC(C)=O)C(=O)NCc1ccccc1)C(=O)N(CCCl)N=O (stereo not given) | > 100 µM |
| O=C(CNc1ccc(Cl)cc1)Nn1c(-c2ccccc2)nc2ccccc2c1=O | 11.5 µM |
| NC(N)=N/N=C/c1c(Cl)nc2sccn12 | 84 µM |
| O=C(Nc1ccc2nc(-c3ccccc3)cn2c1)Oc1ccccc1 | 90.2 µM |
| COc1cc(C2c3cc4c(cc3[C@H](OCCN(C)C)[C@@H]3COC(=O)C23)OCO4)cc(OC)c1O (stereo not given in full) | 2.35 µM |
| Cc1cccc2c(N)c3cccc(C(=O)NCCCNCCN)c3nc12 | 0.0786 µM |
| COC12C=CC(CC1)C(C)(C)C2=O (stereo not given) | > 100 µM |
| NS(=O)(=O)c1nnc(NC(=O)c2ccccc2)s1 | > 100 µM |
| CC(=O)OCC1OC(N2C(c3ccccc3)=CC(c3ccccc3)C(C#N)=C2S)C(OC(C)=O)C(OC(C)=O)C1OC(C)=O (stereo not given) | 28.6 µM |
| CCOC(=O)/C(O)=C(/C=NC(=S)c1ccncc1)C(=O)OCC | > 100 µM |

The molecules below were run on U251 CNS (assay: growth of human tumour cells (NCI), 48 h).

| SMILES | TGI | GI50 |
| --- | --- | --- |
| CC(=O)NNc1nc(C)c(C(/C=C/c2cccc([N+](=O)[O-])c2)=N/NC(=S)NN)s1 | > 100 µM | – |
| CCCN(CCCCC(NC(C)=O)C(=O)NCc1ccccc1)C(=O)N(CCCl)N=O (stereo not given) | > 74.9 µM | – |
| O=C(CNc1ccc(Cl)cc1)Nn1c(-c2ccccc2)nc2ccccc2c1=O | 5.02 µM | – |
| NC(N)=N/N=C/c1c(Cl)nc2sccn12 | > 100 µM | – |
| O=C(Nc1ccc2nc(-c3ccccc3)cn2c1)Oc1ccccc1 | > 100 µM | – |
| COc1cc(C2c3cc4c(cc3[C@H](OCCN(C)C)[C@@H]3COC(=O)C23)OCO4)cc(OC)c1O (stereo not given in full) | 0.898 µM | 0.0409 µM |
| Cc1cccc2c(N)c3cccc(C(=O)NCCCNCCN)c3nc12 | 9.31 µM | – |
| COC12C=CC(CC1)C(C)(C)C2=O (stereo not given) | > 100 µM | – |
| NS(=O)(=O)c1nnc(NC(=O)c2ccccc2)s1 | > 100 µM | – |
| CC(=O)OCC1OC(N2C(c3ccccc3)=CC(c3ccccc3)C(C#N)=C2S)C(OC(C)=O)C(OC(C)=O)C1OC(C)=O (stereo not given) | 16.2 µM | – |
| CCOC(=O)/C(O)=C(/C=NC(=S)c1ccncc1)C(=O)OCC | > 100 µM | – |

The molecules below were run on SF-268 CNS (assay: growth of human tumour cells (NCI), 48 h).

| SMILES | TGI |
| --- | --- |
| CC(=O)NNc1nc(C)c(C(/C=C/c2cccc([N+](=O)[O-])c2)=N/NC(=S)NN)s1 | > 100 µM |
| CCCN(CCCCC(NC(C)=O)C(=O)NCc1ccccc1)C(=O)N(CCCl)N=O (stereo not given) | > 100 µM |
| O=C(CNc1ccc(Cl)cc1)Nn1c(-c2ccccc2)nc2ccccc2c1=O | 26.9 µM |
| NC(N)=N/N=C/c1c(Cl)nc2sccn12 | > 100 µM |
| O=C(Nc1ccc2nc(-c3ccccc3)cn2c1)Oc1ccccc1 | > 100 µM |
| COc1cc(C2c3cc4c(cc3[C@H](OCCN(C)C)[C@@H]3COC(=O)C23)OCO4)cc(OC)c1O (stereo not given in full) | 2.97 µM |
| Cc1cccc2c(N)c3cccc(C(=O)NCCCNCCN)c3nc12 | 3.19 µM |
| COC12C=CC(CC1)C(C)(C)C2=O (stereo not given) | > 100 µM |
| NS(=O)(=O)c1nnc(NC(=O)c2ccccc2)s1 | > 100 µM |
| CC(=O)OCC1OC(N2C(c3ccccc3)=CC(c3ccccc3)C(C#N)=C2S)C(OC(C)=O)C(OC(C)=O)C1OC(C)=O (stereo not given) | 19.6 µM |
| CCOC(=O)/C(O)=C(/C=NC(=S)c1ccncc1)C(=O)OCC | > 100 µM |

Each molecule was assayed on NCI-H460 lung (assay: growth of human tumour cells (NCI), 48 h).

| SMILES | TGI |
| --- | --- |
| CC(=O)NNc1nc(C)c(C(/C=C/c2cccc([N+](=O)[O-])c2)=N/NC(=S)NN)s1 | > 100 µM |
| CCCN(CCCCC(NC(C)=O)C(=O)NCc1ccccc1)C(=O)N(CCCl)N=O (stereo not given) | > 56.2 µM |
| O=C(CNc1ccc(Cl)cc1)Nn1c(-c2ccccc2)nc2ccccc2c1=O | 23.4 µM |
| NC(N)=N/N=C/c1c(Cl)nc2sccn12 | 30.3 µM |
| O=C(Nc1ccc2nc(-c3ccccc3)cn2c1)Oc1ccccc1 | > 100 µM |
| COc1cc(C2c3cc4c(cc3[C@H](OCCN(C)C)[C@@H]3COC(=O)C23)OCO4)cc(OC)c1O (stereo not given in full) | 0.766 µM |
| Cc1cccc2c(N)c3cccc(C(=O)NCCCNCCN)c3nc12 | 11.6 µM |
| COC12C=CC(CC1)C(C)(C)C2=O (stereo not given) | > 100 µM |
| NS(=O)(=O)c1nnc(NC(=O)c2ccccc2)s1 | > 100 µM |
| CC(=O)OCC1OC(N2C(c3ccccc3)=CC(c3ccccc3)C(C#N)=C2S)C(OC(C)=O)C(OC(C)=O)C1OC(C)=O (stereo not given) | > 49.5 µM |
| CCOC(=O)/C(O)=C(/C=NC(=S)c1ccncc1)C(=O)OCC | > 100 µM |

The molecules below were run on MALME-3M melanoma (assay: growth of human tumour cells (NCI), 48 h).

| SMILES | TGI |
| --- | --- |
| CC(=O)NNc1nc(C)c(C(/C=C/c2cccc([N+](=O)[O-])c2)=N/NC(=S)NN)s1 | > 100 µM |
| CCCN(CCCCC(NC(C)=O)C(=O)NCc1ccccc1)C(=O)N(CCCl)N=O (stereo not given) | > 100 µM |
| O=C(CNc1ccc(Cl)cc1)Nn1c(-c2ccccc2)nc2ccccc2c1=O | 13.7 µM |
| NC(N)=N/N=C/c1c(Cl)nc2sccn12 | 50.3 µM |
| O=C(Nc1ccc2nc(-c3ccccc3)cn2c1)Oc1ccccc1 | > 100 µM |
| COc1cc(C2c3cc4c(cc3[C@H](OCCN(C)C)[C@@H]3COC(=O)C23)OCO4)cc(OC)c1O (stereo not given in full) | 1.73 µM |
| Cc1cccc2c(N)c3cccc(C(=O)NCCCNCCN)c3nc12 | 19.9 µM |
| COC12C=CC(CC1)C(C)(C)C2=O (stereo not given) | > 100 µM |
| NS(=O)(=O)c1nnc(NC(=O)c2ccccc2)s1 | > 100 µM |
| CC(=O)OCC1OC(N2C(c3ccccc3)=CC(c3ccccc3)C(C#N)=C2S)C(OC(C)=O)C(OC(C)=O)C1OC(C)=O (stereo not given) | 28.3 µM |
| CCOC(=O)/C(O)=C(/C=NC(=S)c1ccncc1)C(=O)OCC | > 100 µM |

What follows are molecules tested on A498 renal (assay: growth of human tumour cells (NCI), 48 h).

| SMILES | TGI |
| --- | --- |
| CC(=O)NNc1nc(C)c(C(/C=C/c2cccc([N+](=O)[O-])c2)=N/NC(=S)NN)s1 | > 100 µM |
| CCCN(CCCCC(NC(C)=O)C(=O)NCc1ccccc1)C(=O)N(CCCl)N=O (stereo not given) | > 100 µM |
| O=C(CNc1ccc(Cl)cc1)Nn1c(-c2ccccc2)nc2ccccc2c1=O | 29.7 µM |
| NC(N)=N/N=C/c1c(Cl)nc2sccn12 | > 100 µM |
| O=C(Nc1ccc2nc(-c3ccccc3)cn2c1)Oc1ccccc1 | > 100 µM |
| COc1cc(C2c3cc4c(cc3[C@H](OCCN(C)C)[C@@H]3COC(=O)C23)OCO4)cc(OC)c1O (stereo not given in full) | 1.22 µM |
| Cc1cccc2c(N)c3cccc(C(=O)NCCCNCCN)c3nc12 | 30.1 µM |
| COC12C=CC(CC1)C(C)(C)C2=O (stereo not given) | > 100 µM |
| NS(=O)(=O)c1nnc(NC(=O)c2ccccc2)s1 | > 100 µM |
| CC(=O)OCC1OC(N2C(c3ccccc3)=CC(c3ccccc3)C(C#N)=C2S)C(OC(C)=O)C(OC(C)=O)C1OC(C)=O (stereo not given) | 44.2 µM |
| CCOC(=O)/C(O)=C(/C=NC(=S)c1ccncc1)C(=O)OCC | > 100 µM |

The molecules below were run on OVCAR-8 ovarian (assay: growth of human tumour cells (NCI), 48 h).

| SMILES | TGI |
| --- | --- |
| CC(=O)NNc1nc(C)c(C(/C=C/c2cccc([N+](=O)[O-])c2)=N/NC(=S)NN)s1 | > 100 µM |
| CCCN(CCCCC(NC(C)=O)C(=O)NCc1ccccc1)C(=O)N(CCCl)N=O (stereo not given) | > 100 µM |
| O=C(CNc1ccc(Cl)cc1)Nn1c(-c2ccccc2)nc2ccccc2c1=O | 5.53 µM |
| NC(N)=N/N=C/c1c(Cl)nc2sccn12 | > 100 µM |
| O=C(Nc1ccc2nc(-c3ccccc3)cn2c1)Oc1ccccc1 | > 100 µM |
| COc1cc(C2c3cc4c(cc3[C@H](OCCN(C)C)[C@@H]3COC(=O)C23)OCO4)cc(OC)c1O (stereo not given in full) | 2.92 µM |
| Cc1cccc2c(N)c3cccc(C(=O)NCCCNCCN)c3nc12 | 23.6 µM |
| COC12C=CC(CC1)C(C)(C)C2=O (stereo not given) | > 100 µM |
| NS(=O)(=O)c1nnc(NC(=O)c2ccccc2)s1 | > 100 µM |
| CC(=O)OCC1OC(N2C(c3ccccc3)=CC(c3ccccc3)C(C#N)=C2S)C(OC(C)=O)C(OC(C)=O)C1OC(C)=O (stereo not given) | 24.2 µM |
| CCOC(=O)/C(O)=C(/C=NC(=S)c1ccncc1)C(=O)OCC | > 100 µM |

These molecules were tested on UACC-62 melanoma (assay: growth of human tumour cells (NCI), 48 h).

| SMILES | TGI |
| --- | --- |
| CC(=O)NNc1nc(C)c(C(/C=C/c2cccc([N+](=O)[O-])c2)=N/NC(=S)NN)s1 | > 100 µM |
| CCCN(CCCCC(NC(C)=O)C(=O)NCc1ccccc1)C(=O)N(CCCl)N=O (stereo not given) | > 100 µM |
| O=C(CNc1ccc(Cl)cc1)Nn1c(-c2ccccc2)nc2ccccc2c1=O | 10.9 µM |
| NC(N)=N/N=C/c1c(Cl)nc2sccn12 | > 100 µM |
| O=C(Nc1ccc2nc(-c3ccccc3)cn2c1)Oc1ccccc1 | > 100 µM |
| COc1cc(C2c3cc4c(cc3[C@H](OCCN(C)C)[C@@H]3COC(=O)C23)OCO4)cc(OC)c1O (stereo not given in full) | 0.496 µM |
| Cc1cccc2c(N)c3cccc(C(=O)NCCCNCCN)c3nc12 | 19 µM |
| COC12C=CC(CC1)C(C)(C)C2=O (stereo not given) | > 100 µM |
| NS(=O)(=O)c1nnc(NC(=O)c2ccccc2)s1 | > 100 µM |
| CC(=O)OCC1OC(N2C(c3ccccc3)=CC(c3ccccc3)C(C#N)=C2S)C(OC(C)=O)C(OC(C)=O)C1OC(C)=O (stereo not given) | 7.67 µM |
| CCOC(=O)/C(O)=C(/C=NC(=S)c1ccncc1)C(=O)OCC | > 100 µM |

What follows are molecules tested on SW-620 colon (assay: growth of human tumour cells (NCI), 48 h).

| SMILES | TGI |
| --- | --- |
| CC(=O)NNc1nc(C)c(C(/C=C/c2cccc([N+](=O)[O-])c2)=N/NC(=S)NN)s1 | > 100 µM |
| CCCN(CCCCC(NC(C)=O)C(=O)NCc1ccccc1)C(=O)N(CCCl)N=O (stereo not given) | > 100 µM |
| O=C(CNc1ccc(Cl)cc1)Nn1c(-c2ccccc2)nc2ccccc2c1=O | 11.9 µM |
| NC(N)=N/N=C/c1c(Cl)nc2sccn12 | 41.1 µM |
| O=C(Nc1ccc2nc(-c3ccccc3)cn2c1)Oc1ccccc1 | > 100 µM |
| COc1cc(C2c3cc4c(cc3[C@H](OCCN(C)C)[C@@H]3COC(=O)C23)OCO4)cc(OC)c1O (stereo not given in full) | 3.4 µM |
| Cc1cccc2c(N)c3cccc(C(=O)NCCCNCCN)c3nc12 | 33.3 µM |
| COC12C=CC(CC1)C(C)(C)C2=O (stereo not given) | > 100 µM |
| NS(=O)(=O)c1nnc(NC(=O)c2ccccc2)s1 | > 100 µM |
| CC(=O)OCC1OC(N2C(c3ccccc3)=CC(c3ccccc3)C(C#N)=C2S)C(OC(C)=O)C(OC(C)=O)C1OC(C)=O (stereo not given) | > 100 µM |
| CCOC(=O)/C(O)=C(/C=NC(=S)c1ccncc1)C(=O)OCC | > 100 µM |
